The inhibition is the change of the read-out against control, counted positive when it falls. The low end stands for a response near the control, the high end for a response far below the control.

The subject of data set [1] is BCR; activation markers CD69 and CD86. In words: In vivo potency: BCR stimulated with IgM, CD69 and CD86 expression by flow cytometry. Conditions: mice gavaged, sacrificed 3 hours post-dose, compared with ibrutinib. As to the method:
Mice were gavaged at increasing drug concentration and sacrificed at one time point (3 hours post-dose). BCR is stimulated with IgM and the expression of activation markers CD69 and CD86 are monitored by flow cytometry to determine EC50 values.
In general terms: In flow cytometry, cells or beads pass a laser one at a time.

The subject of the next data set is CXCL12 and CCL2. In words: Plasma chemokines in treated CLL patients. The data set is classed as in vivo, human. Conditions: CLL patients on treatment.
The subject of data set [2] is CD8+ T cell function (B lymphoblast targets). In words: Cytotoxic T cell (CTL) assay. Format: cell-based. Conditions: CTL generated 4 days with 500 nM inhibitor. As to the method:
Without being bound by any theory, CD8^+ T cells have two primary effector functions: (1) produce large amounts of IFN-γ (which activates macrophages), and (2) cytolytic activity. […] The targets were B lymphoblasts from lipopolysaccharide (LPS) treated cultures. The assay was performed by incubating different ratios of effectors:targets for 4 hours.

The subject of data set [3] is NK cells co-cultured with antibody-coated DHL-4 or HER18 target cells. In words: NK cell lytic granule release (CD107a) by flow cytometry. The data set is classed as cell-based, human. Conditions: 1 μM; HER18 targets, trastuzumab 10 μg/mL.
From the text: Prior to assay, HER18 cells were harvested using trypsin-EDTA, washed with phosphate-buffered saline (PBS) containing 5% serum and viable cells were counted. For culture of primary target cells, peripheral blood from CLL patients was subject to density centrifugation to obtain peripheral blood mononuclear cells (PBMC). Cell preparations were washed and then subject to positive selection of CD5^+CD19^+ CLL cells using magnetic beads (MACS, Miltenyi Biotech). Cell preparations were used fresh after selection. NK cells from CLL patients and healthy volunteers were enriched from peripheral blood collected in sodium citrate anticoagulant tubes and then subject to density centrifugation. Removal of non NK cells was performed using negative selection by MACS separation. […]
Lytic granule release was determined as follows. […] Degranulation was evaluated via by flow cytometery by externalization of CD107a, a protein normally present on the inner leaflet of lytic granules, and gating on NK cells (CD3-CD16^+ lymphocytes). The percentage of CD107a positive NK cells was quantified by comparison with a negative control (isotype control, unstained cells/FMO). Control cultures (NK cells cultured without target cells, or NK, target cell co-cultures in the absence of appropriate monoclonal antibody) were also evaluated; all experiments were performed in triplicate.
A further data set relates to CYP enzymes. Description: Nonclinical CYP interaction studies. The data set is classed as in vitro ADME.
Data set [4] has as its system CD8+ T cell. Description: IFN-γ level measurements for CD8+ T cell function. Format: cell-based. Conditions: relative to vehicle. From the text: FIG. 39 illustrates the results of IFN-γ level measurements for CD8^+ T cell function.
In another data set the test system is KPC pancreatic cancer. In words: KPC pancreatic cancer model (tumor volumes, tumor tissue immune cells). Format: in vivo. Conditions: tumor tissues.
The subject of the next data set is ID8 ovarian cancer. In words: ID8 syngeneic orthotopic ovarian cancer murine model. Format: in vivo, mice. Conditions: 15 mg/kg/BID orally. From the text:
[…] ovarian cancer models, including the ID8 syngeneic orthotopic ovarian cancer model and other animal models, are described in Fong and Kakar, J. Ovarian Res. 2009, 2, 12; Greenaway, et al., Gynecol. Oncol. 2008, 108, 385-94; Urzua, et al., Tumour Biol. 2005, 26, 236-44; Janat-Amsbury, et al., Anticancer Res. 2006, 26, 3223-28; Janat-Amsbury, et al., Anticancer Res. 2006, 26, 2785-89. […] The results of the study are shown in FIG. 8, FIG. 9, FIG. 10, FIG. 11, FIG. 12, FIG. 13, FIG. 14, and FIG. 15.

For a further data set, the target named is T1, BTK (Mus musculus, UniProt P35991).
T1 construct: endogenous in cells; host or cells: granulocytic and monocytic MDSCs from tumor-bearing PDA mice
In words: Molecular probe assay of BTK occupancy in MDSCs of tumor bearing PDA mice. The data set is classed as in vivo. Conditions: 15 mg/kg BID, Day 8, 4 hours post dose. An excerpt:
A molecular probe assay was used to calculate the percent irreversible occupancy of total BTK.

In a further data set the target is CYP3A4 (Homo sapiens, UniProt P08684). In words: In vitro loss of parent drug as catalyzed by CYPs. The data set is classed as in vitro ADME.
The next data set relates to CD8+ T cells. Description: CD8+ T cell viability on anti-TCR/anti-CD28 coated wells. The following applies: 4 days, neutral culture conditions. Format: cell-based. The protocol: Total T cells were plated on anti-TCR and anti-CD28 coated wells in the presence of both BTK inhibitors. Neutral culture conditions were used that will not polarize T cells to a helper lineage. […] Statistical significance was calculated using the Mann Whitney T-test.

The next data set relates to CLL. Description: Clinical study of Formula (2) in CLL (ALC, SPD, PFS, immune cells, apoptosis, chemokines). The following applies: CLL patients, relative to ibrutinib (Byrd et al. 2013).
Data set [5] has as its system CD8+ T cell. Description: Cytotoxicity assay for CD8+ T cell function. The data set is classed as cell-based. Conditions: relative to vehicle. An excerpt: FIG. 38 illustrates the results of the cytotoxicity assay for CD8^+ T cell function.
Data set [6] is described as follows: GLP functional observation battery. Format: in vivo. The following applies: rats, doses through 300 mg/kg. From the text: (§1) Formula (2) was well tolerated in standard in vivo Good Laboratory Practices (GLP) studies of pharmacologic safety.
Data set [7] has as its system NK cells and MDSC subsets in peripheral blood. In words: Flow cytometry of peripheral blood cell subsets in CLL patients. Format: in vivo, human. Conditions: patients with falling ALC counts; 28 days of dosing. The protocol: PBMCs were stained with monoclonal antibodies conjugated to fluorescent tags (flourochromes) to identify cell subsets via flow cytometry. Non-viable cells were excluded from the analysis using the dye 7-aminoactinomycin D (7-AAD). To produce the metric of percent change, the following steps were taken. First, each cell subset was defined by hierarchical flow cytometry gating. Then, the change in frequency (between day 1 and day 28) was calculated for each cell subset. MDSC subsets were measured as a % of all myeloid cells. T cell subsets were measured as a % of all CD3^+ cells, and NK cells were measured as a % of all live CD45^+ cells. […] A cycle is 28 days. A trend is observed wherein patients with decreasing ALC % had increasing MDSC (monocytic) %. This may include patients who had quickly resolving lymphocytosis and those with no initial lymphocytosis. […] This may include patients who had quickly resolving lymphocytosis and those having no initial lymphocytosis. The effects in FIG. 47 to FIG. 50 are observed in multiple cohorts, at doses including 100 mg BID, 200 mg QD, and 400 mg QD. In FIG. 51 and FIG. 52, the effects on NK cells and MDSC cells are compared to a number of other markers versus % change in ALC at C1D28 and C2D28. […] The effects on NK cells and MDSC cells are observed to be much more pronounced than on any of these other markers.

The subject of data set [8] is 80 known pharmacologic targets (G-protein-coupled receptors, nuclear receptors, proteases, ion channels). In words: Binding assays on 80 known pharmacologic targets at 10 μM. Conditions: screened at 10 μM.
From the text: as §1

Data set [9] concerns EGFR phosphorylation (p-EGFR Y1069) in A431 cells. Description: EGF-induced EGFR phosphorylation in A431 cells (phosphoflow). The data set is classed as cell-based, human. The protocol: Phosphoflow cytometry was performed with p-EGFR (Y1069). MFI values were normalized so that 100% represents the p-EGFR level in stimulated cells without inhibitor, while 0% represents the unstimulated/no drug condition.

A short description of data set [10]: In vitro metabolism in hepatocytes with 14C-labeled drug. The following applies: mouse, rat, dog, rabbit, monkey, human hepatocytes. Format: in vitro ADME, and human.

Sequence of CYP3A4 (P08684 whole entry): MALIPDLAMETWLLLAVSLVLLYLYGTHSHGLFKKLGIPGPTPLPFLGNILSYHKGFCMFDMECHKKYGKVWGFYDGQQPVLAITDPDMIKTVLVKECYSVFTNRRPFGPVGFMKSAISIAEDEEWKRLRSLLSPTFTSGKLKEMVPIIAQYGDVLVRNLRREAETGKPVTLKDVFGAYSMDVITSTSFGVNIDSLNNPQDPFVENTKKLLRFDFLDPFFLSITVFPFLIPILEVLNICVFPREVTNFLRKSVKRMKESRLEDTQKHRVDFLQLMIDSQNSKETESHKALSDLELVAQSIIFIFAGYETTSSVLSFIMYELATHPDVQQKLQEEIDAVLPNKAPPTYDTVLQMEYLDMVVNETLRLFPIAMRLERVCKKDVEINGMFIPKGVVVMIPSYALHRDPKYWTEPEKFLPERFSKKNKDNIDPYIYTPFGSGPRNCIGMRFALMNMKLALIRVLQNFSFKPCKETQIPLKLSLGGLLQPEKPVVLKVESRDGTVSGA
T1 sequence (P35991 whole entry): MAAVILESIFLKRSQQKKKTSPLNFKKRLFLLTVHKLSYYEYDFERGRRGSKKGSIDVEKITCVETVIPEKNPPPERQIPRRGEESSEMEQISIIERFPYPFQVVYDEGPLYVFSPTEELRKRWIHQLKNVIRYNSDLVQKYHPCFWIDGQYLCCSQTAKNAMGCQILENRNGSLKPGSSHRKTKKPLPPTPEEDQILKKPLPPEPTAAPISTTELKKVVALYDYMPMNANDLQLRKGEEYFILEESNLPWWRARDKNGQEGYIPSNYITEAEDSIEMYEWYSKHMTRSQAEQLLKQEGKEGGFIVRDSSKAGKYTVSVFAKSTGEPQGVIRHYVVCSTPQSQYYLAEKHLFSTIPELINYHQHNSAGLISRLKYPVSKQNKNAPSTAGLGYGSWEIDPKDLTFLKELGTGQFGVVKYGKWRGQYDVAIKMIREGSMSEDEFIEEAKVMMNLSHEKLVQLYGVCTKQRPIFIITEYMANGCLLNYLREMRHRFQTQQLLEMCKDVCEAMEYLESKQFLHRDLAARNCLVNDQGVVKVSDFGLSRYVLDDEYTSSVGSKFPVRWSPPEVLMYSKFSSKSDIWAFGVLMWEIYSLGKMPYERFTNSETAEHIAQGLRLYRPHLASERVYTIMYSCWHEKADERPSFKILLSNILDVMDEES

With `CC#CC(=O)N1CCC[C@H]1c1nc(-c2ccc(C(=O)Nc3ccccn3)cc2)c2c(N)nccn12` [Formula (2), (S)-4-(8-amino-3-(1-(but-2-ynoyl)pyrrolidin-2-yl)imidazo[1,5-a]pyrazin-1-yl)-N-(pyridin-2-yl)benzamide], in [1], the “inhibition of expression of activation markers CD69 and CD86” value is “more potent at inhibiting expression of activation makers than Formula (10) (ibrutinib)”. In the data set on CXCL12 and CCL2, the “plasma CCL2 levels” value is reported as “significant decrease” and the “plasma CXCL12 levels” value is reported as “significant decrease”. In data set [2], the “CD8+ T cell function as % cytotoxicity” value is recorded as “no effect”. In addition, the “inhibition of trastuzumab-stimulated NK cell degranulation” value in data set [3] is “no inhibitory effect”. Further, the “potential for clinical drug-drug interactions via CYP enzymes” value in the data set on CYP enzymes is reported as “very unlikely to cause clinical drug-drug interactions”. For the same compound, the “CD8+ T cell function as IFN-γ level” value in the data set with CD8+ T cell [4] is “no effect on CD8^+ T cell function as measured by IFN-γ level relative to vehicle”. In the data set on KPC pancreatic cancer, the “immunosuppressive MDSCs (Gr1+Ly6CHi)” value was “significantly reduced”, the “immunosuppressive TAMs (CD11b+Ly6ClowF4/80+Csf1r+)” value is “significantly reduced” and the “immunosuppressive Tregs (CD4+CD25+FoxP3+)” value is on record as “significantly reduced”. Besides, the “CD8+ T cells” value in the data set on ID8 ovarian cancer was “increase”. In the data set on ID8 ovarian cancer (tumor-bearing mice), the “immunosuppressive B cells, including Bregs” value is on record as “significant reduction” and the immunosuppressive tumor-associated lymphocytes result was “significant reduction”. Also, the “irreversible BTK occupancy in granulocytic and monocytic MDSCs” value at BTK is given as “Complete BTK occupancy”. On CYP3A4, the “CYP responsible for metabolism” value is “metabolized by CYP3A4”. The “CD8+ T cell viability” value in the data set with CD8+ T cells is “not observed”. The “absolute lymphocyte count (ALC)” value in the data set on CLL is “much smaller relative increase and much faster decrease in absolute lymphocyte count (ALC)”. Also, in the data set on CD8+ T cell [5], the “CD8+ T cell function as % cytotoxicity” value was “no effect on CD8^+ T cell function as measured by % cytotoxicity relative to vehicle”. Besides, the “functional observation battery: neurobehavioral effects, body temperature” value in data set [6] is given as “no adverse effects”. The “NK cells and monocytic MDSC subsets in peripheral blood” value in data set [7] was “increase in frequency”. Besides, the “activity in binding assays on 80 known pharmacologic targets” value in data set [8] was “significant activity only against the A3 adenosine receptor”. For the same compound, in [9] (10 μM, A431 human epidermoid cancer cell line), the “inhibition of in vitro EGFR phosphorylation” value is “no inhibition”. In addition, at 10 µM the inhibition in data set [9] (Homo sapiens, A-431, A431 cells, 2 h, EGF 100 ng/mL 5 min) was 7%. Besides, the metabolites in hepatocytes result in data set [10] is “two mono-oxidized metabolites and a glutathione conjugate”.

The values above are taken from patent US20190022092A1, “Therapeutic Combinations of a BTK Inhibitor and a GITR Binding Molecule, a 4-1BB Agonist, or an OX40 Agonist” (Acerta Pharma B.V., priority 2015, published 2019).
